Experimental data reported in the NIST ThermoML archive (doi:10.1016/j.fluid.2015.03.049).
± gives the expanded uncertainty stated by the source.

Details: Liquid; for mass density: 101.33 kPa, Vibrating tube method; for Normal boiling temperature: Ebulliometric method (Recirculating still)

mass density (303.15 K) [kg/m3] | Normal boiling temperature [°C] | mass density (288.15 K) [kg/m3] | mass density (298.15 K) [kg/m3] | SMILES
848.59 ± 0.13 | 42.00 ± 0.2 |  |  | COCOC [dimethoxymethane]
 | 31.50 ± 0.2 | 980.82 ± 0.11 |  | COC=O [methyl methanoate]
 | 90.00 ± 0.2 |  | 1063.3 ± 0.12 | COC(=O)OC [dimethyl carbonate]
